From ChEMBL document CHEMBL5154904, “Discovery and Structural Basis of the Selectivity of Potent Cyclic Peptide Inhibitors of MAGE-A4” (J Med Chem, 2022)
Calls of active or inactive are those of the source. The calls are words filed in the database; no cut-off is given here. Positions of bridges follow the written chain, without caps; N, C: chain ends. Residues, ends and D or L forms follow the SMILES beside them.

What was measured:
[1] = biological target: T1, Melanoma-associated antigen 4 (Homo sapiens) (UniProt P43358); test: Binding affinity to recombinant N-terminal His-tagged MAGEA4-MH domain (unknown origin) expressed in Escherichia coli BL21-(DE3) assessed as protection in trypsin-induced MAGEA4 protein degradation incubated for 1 hr by proteolysis based SDS-PAGE analysis
T1 sequence (whole entry): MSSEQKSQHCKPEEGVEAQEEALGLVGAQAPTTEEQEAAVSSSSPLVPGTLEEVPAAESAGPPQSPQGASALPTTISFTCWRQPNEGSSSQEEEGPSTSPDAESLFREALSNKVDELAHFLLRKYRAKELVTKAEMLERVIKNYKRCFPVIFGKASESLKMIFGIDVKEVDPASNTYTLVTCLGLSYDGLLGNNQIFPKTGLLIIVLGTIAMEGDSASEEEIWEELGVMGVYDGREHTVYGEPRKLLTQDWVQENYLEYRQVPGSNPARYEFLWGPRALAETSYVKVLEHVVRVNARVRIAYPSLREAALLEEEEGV

[2] = biological target: T2, Melanoma-associated antigen 4 (Homo sapiens, UniProt P43358); test: Inhibition of Eu-W1024 streptavidin-labeled MAGEA4 (unknown origin) expressed in Escherichia coli BL21-(DE3) incubated for 30 to 60 mins by LANCE TR-FRET assay
T2 sequence (P43358 whole entry): T1 sequence (whole entry)

[3] = Inhibition of biotinylated Eu-W1024 streptavidin-labeled MAGEA4 (unknown origin) expressed in Escherichia coli BL21-(DE3)/GST-tagged RAD18 (unknown origin) (267 to 402 residues) interaction using Ulight-anti-GST antibody incubated for 30 to 60 mins by LANCE TR-FRET assay; design: species or system Homo sapiens
[4] = biological target: T2, Melanoma-associated antigen 4; test: Binding affinity to recombinant N-terminal His-tagged MAGEA4-MH domain (unknown origin) expressed in Escherichia coli BL21-(DE3) by isothermal titration calorimetry
[5] = biological target: T2, Melanoma-associated antigen 4; test: Binding affinity to MAGEA4 (unknown origin) expressed in Escherichia coli BL21-(DE3) by isothermal titration calorimetry
Homo sapiens = organism: Homo sapiens; test: Binding affinity to recombinant N-terminal His-tagged MAGEA4-MH domain Y5A mutant (unknown origin) expressed in Escherichia coli BL21-(DE3) assessed as inhibition of protein stabilization at 10 uM by TR-FRET assay

Activity [1] | IC50 [2] | IC50 [3] | Kd [4] | Kd [5] | Activity (Homo sapiens) | Molecule
Active | < 10000 nM |  |  |  |  | Ac-YIRLYDYHNC-NH2
 | 1.26 nM | 13.5 nM | 47.4 nM | 55.5 nM |  | CC(C)C[C@@H]1NC(=O)[C@H]([C@H](C)O)NC(=O)[C@H](C(C)C)NC(=O)[C@H](Cc2ccc(O)cc2)NC(=O)CSC[C@@H](C(N)=O)NC(=O)[C@H]([C@@H](C)O)NC(=O)[C@H]2CCCN2C(=O)[C@H](Cc2ccccc2)NC(=O)[C@H](CCCNC(=N)N)NC(=O)[C@H](CC(N)=O)NC(=O)[C@H](Cc2ccccc2)NC(=O)[C@H]([C@@H](C)O)NC(=O)[C@H](CCCNC(=N)N)NC1=O
 |  |  |  |  | Active | CC[C@H](C)[C@@H]1NC(=O)[C@H](Cc2ccc(O)cc2)NC(=O)CSC[C@@H](C(N)=O)NC(=O)[C@H](CC(N)=O)NC(=O)[C@H](Cc2cnc[nH]2)NC(=O)[C@H](Cc2ccc(O)cc2)NC(=O)[C@H](CC(=O)O)NC(=O)[C@H](C)NC(=O)[C@H](CC(C)C)NC(=O)[C@H](CCCNC(=N)N)NC1=O ({CH2CO}-YIRLADYHNC-NH2; thioether N-10)
 | < 1 nM | < 10 nM | 6.5 nM | 11.8 nM |  | CC(C)C[C@@H]1NC(=O)[C@H](CCCNC(=N)N)NC(=O)[C@H](CS)NC(=O)[C@H](Cc2ccc(O)cc2)NC(=O)CSC[C@@H](C(N)=O)NC(=O)[C@H](Cc2ccc(O)cc2)NC(=O)[C@H]([C@@H](C)O)NC(=O)[C@H](CCCNC(=N)N)NC(=O)[C@H]2CCCN2C(=O)[C@H](CC(C)C)NC(=O)[C@H](Cc2cnc[nH]2)NC(=O)[C@H](Cc2ccc(O)cc2)NC(=O)[C@H](CC(=O)O)NC(=O)[C@H](Cc2ccc(O)cc2)NC1=O
